Paper PMC11035696, “Prospective de novo drug design with deep interactome learning” (Nature Communications, 2024)

Experiments:
[1] = Parallel artificial membrane permeability assay (PAMPA); type: in vitro ADME; conditions: read-out: […] permeation coefficient
Procedure: (§1) Compounds 1–3 were characterized in a hybrid reporter gene assay for their agoniztic effect on human nuclear receptors PPARα/γ/δ, RXRα, FXRα, RARα in HEK293T cells. Compound 1 was tested in an isothermal titration calorimetry (ITC) assay to measure direct binding affinity to the ligand-binding domain of PPARγ. ADME properties were measured in standardized assays at Roche.
(§2) SI11Absorption Distribution Metabolism and Excretion and Toxicity Data
(§3) To assess the drug-like characteristics of the newly designed PPAR modulators, a series of tests were conducted covering various aspects of absorption, distribution, metabolism, and excretion (ADME) properties. Specifically, these assessments included the parallel artificial membrane permeability assay (PAMPA) with permeation co- […]
(§4) efficients ([…]), LogD measurements, microsomal clearance, hepatocyte clearance, P-glycoprotein (Pgp) efflux ratio and binding and the unbound free fraction. […]
(§5) Table S14: Absorption distribution metabolism and excretion (ADME) properties of compounds 1 and 2. The […]
(§6) values for […], LogD, protein binding, P-glycoprotein (Pgp) efflux ratio and permeability, and hepato-cyte clearance are presented as the mean and standard deviation, with a sample size of N = 3, i.e., 3 technical replicates each. The values for microsomal clearance and CYP-inhibition represent single point measurements. […]

[2] = Microsomal clearance, human; type: in vitro ADME; conditions: human microsomes, single point measurement
Procedure: as §1, §2, §3
(§7) efficients ([…]), LogD measurements, microsomal clearance, hepatocyte clearance, P-glycoprotein (Pgp) efflux ratio and binding and the unbound free fraction. […] For seven selected CYP proteins (i.e., Cyp3A4, Cyp1A2, Cyp2B6, Cyp2C9, Cyp2D6, Cyp2C19, and Cyp2C8) the half maximal inhibitory con-centration (IC50) was determined. […]
(§8) Compounds 1 and 2 were validated for cytotoxicity on HEK293T cells. Figure S16 depicts the measured cyto-toxicity at two time points (i.e., 16h and 24h), 10 different concentrations (i.e., 0.05 - 20 µM), and 5 different

[3] = Microsomal clearance, rat; type: in vitro ADME; conditions: rat microsomes, single point measurement
Procedure: as §1, §2, §3, §7, §8

[4] = Lipophilicity (LogD pH 7.4); type: physicochemical
Procedure: as §1, §2, §3, §4, §5, §6

[5] = Microsomal clearance, mouse; type: in vitro ADME; conditions: mouse microsomes, single point measurement
Procedure: as §1, §2, §3, §7, §8

CO[C@@H](Cc1ccc(OCCc2nc(-c3ccccc3)oc2C)c2ccsc12)C(=O)O [aleglitazar]
Papp [1]: 6 ×10⁻⁶ cm/s
Microsomal clearance, human [2]: ≥ 10 µL·min−1·mg−1 protein
Microsomal clearance, rat [3]: ≥ 10 µL·min−1·mg−1 protein
logD [4]: 1.4
Microsomal clearance, mouse [5]: ≥ 10 µL·min−1·mg−1 protein
